Test results as given in US20190100534A1, “Cephem Compounds with Latent Reactive Groups” (Gladius Pharmaceuticals, Inc., priority 2017, published 2019).

Columns and labels:
[1] = test system: Pseudomonas aeruginosa (PA); test: MIC determination; type: cell-based; settings: Pseudomonas aeruginosa; PA; CAMH broth, 20 μM Apo-Transferrin, 37° C., 18 hours; read-out: Minimum Inhibitory Concentrations, PA
Procedure, shortened: (§1)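 Broth microdilution in CAMH + 20 μM apo-transferrin; inoculum 0.5 McFarland, used within 30 min. Compound 64→0.125 μg/mL, twofold steps. 37 °C, 18 h. MIC = lowest clear-well concentration.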

[2] = test system: Pseudomonas aeruginosa PA (RR-1); test: MIC determination; type: cell-based; settings: Pseudomonas aeruginosa; PA (RR-1); CAMH broth, 20 μM Apo-Transferrin, 37° C., 18 hours; read-out: Minimum Inhibitory Concentrations, PA (RR-1)
Procedure, shortened: as §1

[3] = test system: Pseudomonas aeruginosa PA (RR-2); test: MIC determination; type: cell-based; settings: Pseudomonas aeruginosa; PA (RR-2); CAMH broth, 20 μM Apo-Transferrin, 37° C., 18 hours; read-out: Minimum Inhibitory Concentrations, PA (RR-2)
Procedure, shortened: as §1

[4] = test system: Pseudomonas aeruginosa PA (URMC-2); test: MIC determination; type: cell-based; settings: Pseudomonas aeruginosa; PA (URMC-2); CAMH broth, 20 μM Apo-Transferrin, 37° C., 18 hours; read-out: Minimum Inhibitory Concentrations, PA (URMC-2)
Procedure, shortened: as §1

[5] = test system: Pseudomonas aeruginosa PA-RR-(980151052); test: MIC determination; type: cell-based; settings: Pseudomonas aeruginosa; PA-RR-(980151052); CAMH broth, 20 μM Apo-Transferrin, 37° C., 18 hours; read-out: Minimum Inhibitory Concentrations, PA-RR-(980151052)
Procedure, shortened: as §1

[6] = test system: Pseudomonas aeruginosa PA-RR-(G7305586); test: MIC determination; type: cell-based; settings: Pseudomonas aeruginosa; PA-RR-(G7305586); CAMH broth, 20 μM Apo-Transferrin, 37° C., 18 hours; read-out: Minimum Inhibitory Concentrations, PA-RR-(G7305586)
Procedure, shortened: as §1

[7] = test system: Pseudomonas aeruginosa PA-RR-(purple Fre D); test: MIC determination; type: cell-based; settings: Pseudomonas aeruginosa, CAMH broth, 20 μM Apo-Transferrin, 37° C., 18 hours, read-out: Minimum Inhibitory Concentrations, PA-RR-(purple Fre D)
Procedure, shortened: as §1

EC (RR -1) = test: MIC determination; type: cell-based, Escherichia coli; settings: CAMH broth, 20 μM Apo-Transferrin, 37° C., 18 hours
Experimental: (§2) Sterile technique was used throughout these experiments. Suspensions of organisms were removed from storage (−80° C.) and partially thawed. Partially thawed organisms (1 μL) were inoculated into 3 mL sterile LB Broth in a sterile culture tube and capped, then cultured at 37° C. with shaking for 4-5 hours until the optical density at 600 nm (OD600) was greater than 0.1 on a single beam spectrophotometer.
(§3) The concentration of organisms was adjusted to 0.08-0.1 OD600 (0.5 McFarland units) by dilution with sterile cation-adjusted Meuller-Hinton (CAMH) broth. The suspensions were used within 30 minutes of preparation.
(§4) A stock solution was made of each test compound by measuring 6.4 mg of the compound on an analytical balance and dissolving it in DMSO (1 mL) to get a transparent solution. The solutions were stored at −20° C. and thawed prior to use.
(§5) Sterile CAMH broth (200 μL) containing 20 μM Apo-Transferrin was pipetted into the first row of 8 columns of a sterile, round-bottomed, transparent, 96-well microplate using an 8-channel pipette equipped with sterile tips. One hundred μL was pipetted into the wells of the remaining 11 rows.
(§6) With an 8-channel pipette equipped with sterile tips, 100 μL of the first row solution was transferred to the second row and mixed. The process was repeated for the second to third rows and continued through row 11. One hundred μL from row 11 was removed and discarded so that all 12 rows contained 100 μL. Row 12 contained no compound and rows 1-11 contained 64, 32, 16, 8, 4, 2, 1, 0.5, 0.25, 0.125, […] of a given compound.
(§7) Inoculant suspensions (0.5 μL) were added to the 12 wells of each column. The plates were then covered and incubated at 37° C. overnight for 18 hours.
(§8) For each organism the MIC was determined by identifying the transparent well with the lowest test compound concentration.

EC (RR -2) = test: MIC determination; type: cell-based, Escherichia coli; settings: CAMH broth, 20 μM Apo-Transferrin, 37° C., 18 hours
Experimental: as §2, §3, §4, §5, §6, §7, §8

EC (URMC-1) = test: MIC determination; type: cell-based, Escherichia coli; settings: Escherichia coli, CAMH broth, 20 μM Apo-Transferrin, 37° C., 18 hours, read-out: Minimum Inhibitory Concentrations, EC (URMC-1)
Experimental: as §2, §3, §4, §5, §6, §7, §8

EC (URMC-2) = test: MIC determination; type: cell-based, Escherichia coli; settings: Escherichia coli, CAMH broth, 20 μM Apo-Transferrin, 37° C., 18 hours, read-out: Minimum Inhibitory Concentrations, EC (URMC-2)
Experimental: as §2, §3, §4, §5, §6, §7, §8

EC (URMC-3) = test: MIC determination; type: cell-based, Escherichia coli; settings: Escherichia coli, CAMH broth, 20 μM Apo-Transferrin, 37° C., 18 hours, read-out: Minimum Inhibitory Concentrations, EC (URMC-3)
Experimental: as §2, §3, §4, §5, §6, §7, §8

EC(ATCC NDM-1) = test: MIC determination; type: cell-based, Escherichia coli; settings: Escherichia coli, CAMH broth, 20 μM Apo-Transferrin, 37° C., 18 hours, read-out: Minimum Inhibitory Concentrations, EC(ATCC NDM-1)
Experimental: as §2, §3, §4, §5, §6, §7, §8

EC(JMI OXA-48) = test: MIC determination; type: cell-based, Escherichia coli; settings: Escherichia coli, CAMH broth, 20 μM Apo-Transferrin, 37° C., 18 hours, read-out: Minimum Inhibitory Concentrations, EC(JMI OXA-48)
Experimental: as §2, §3, §4, §5, §6, §7, §8

EC(KB1 CTX-M-15) = test: MIC determination; type: cell-based, Escherichia coli; settings: Escherichia coli, CAMH broth, 20 μM Apo-Transferrin, 37° C., 18 hours, read-out: Minimum Inhibitory Concentrations, EC(KB1 CTX-M-15)
Experimental: as §2, §3, §4, §5, §6, §7, §8

EC(KB2 CTX-M-15) = test: MIC determination; type: cell-based, Escherichia coli; settings: Escherichia coli, CAMH broth, 20 μM Apo-Transferrin, 37° C., 18 hours, read-out: Minimum Inhibitory Concentrations, EC(KB2 CTX-M-15)
Experimental: as §2, §3, §4, §5, §6, §7, §8

KP (ATCC KPC-3) = test: MIC determination; type: cell-based, Klebsiella pneumoniae; settings: CAMH broth, 20 μM Apo-Transferrin, 37° C., 18 hours
Experimental: as §2, §3, §4, §5, §6, §7, §8

KP (GJ 5659 TEM-26) = test: MIC determination; type: cell-based, Klebsiella pneumoniae; settings: CAMH broth, 20 μM Apo-Transferrin, 37° C., 18 hours
Experimental: as §2, §3, §4, §5, §6, §7, §8

KP (RR -1) = test: MIC determination; type: cell-based, Klebsiella pneumoniae; settings: CAMH broth, 20 μM Apo-Transferrin, 37° C., 18 hours
Experimental: as §2, §3, §4, §5, §6, §7, §8

KP (URMC-1) = test: MIC determination; type: cell-based, Klebsiella pneumoniae; settings: CAMH broth, 20 μM Apo-Transferrin, 37° C., 18 hours
Experimental: as §2, §3, §4, §5, §6, §7, §8

KP (URMC-2) = test: MIC determination; type: cell-based, Klebsiella pneumoniae; settings: CAMH broth, 20 μM Apo-Transferrin, 37° C., 18 hours
Experimental: as §2, §3, §4, §5, §6, §7, §8

KP (URMC-3) = test: MIC determination; type: cell-based, Klebsiella pneumoniae; settings: CAMH broth, 20 μM Apo-Transferrin, 37° C., 18 hours
Experimental: as §2, §3, §4, §5, §6, §7, §8

KP(GJ 5934 TEM-26) = test: MIC determination; type: cell-based, Klebsiella pneumoniae; settings: CAMH broth, 20 μM Apo-Transferrin, 37° C., 18 hours
Experimental: as §2, §3, §4, §5, §6, §7, §8

KP(JMI KPC-2) = test: MIC determination; type: cell-based, Klebsiella pneumoniae; settings: CAMH broth, 20 μM Apo-Transferrin, 37° C., 18 hours
Experimental: as §2, §3, §4, §5, §6, §7, §8

KP(ATCC TEM-10/TEM-12) = type: cell-based, Klebsiella pneumoniae; settings: CAMH broth, 20 μM Apo-Transferrin, 37° C., 18 hours
Experimental: as §2, §3, §4, §5, §6, §7, §8

ENA (URMC-1) = test: MIC determination; type: cell-based, Enterobacter aerogenes; settings: Klebsiella aerogenes, CAMH broth, 20 μM Apo-Transferrin, 37° C., 18 hours, read-out: Minimum Inhibitory Concentrations, ENA (URMC-1)
Experimental: as §2, §3, §4, §5, §6, §7, §8

ENA (URMC-2) = test: MIC determination; type: cell-based, Enterobacter aerogenes; settings: Klebsiella aerogenes, CAMH broth, 20 μM Apo-Transferrin, 37° C., 18 hours, read-out: Minimum Inhibitory Concentrations, ENA (URMC-2)
Experimental: as §2, §3, §4, §5, §6, §7, §8

CF (RR -1) = test: MIC determination; type: cell-based, Citrobacter freundii; settings: CAMH broth, 20 μM Apo-Transferrin, 37° C., 18 hours
Experimental: as §2, §3, §4, §5, §6, §7, §8

## CC(C)(O/N=C(\C(=O)N[C@@H]1C(=O)N2C(C(=O)O)=C(C=Cc3ccc(C[N+]4(C)Cc5c(Cl)c(O)c(O)c(Cl)c5C4)cc3)CS[C@H]12)c1csc(N)n1)C(=O)O (mixture of isomers) [Compound 431, 2-(4-((E/Z)-2-((6R,7R)-7-((Z)-2-(2-aminothiazol-4-yl)-2-(((2-carboxypropan-2-yl)oxy)imino)acetamido)-2-carboxy-8-oxo-5-thia-1-azabicyclo[4.2.0]oct-2-en-3-yl)vinyl)benzyl)-4,7-dichloro-5,6-dihydroxy-2-methylisoindolin-2-ium]
[1]
  MIC: 0.25 µg/mL
[2]
  MIC: 0.13 µg/mL
[3]
  MIC: ≤ 0.06 µg/mL
[4]
  MIC: ≤ 0.06 µg/mL
[5]
  MIC: 0.25 µg/mL
[6]
  MIC: 0.5 µg/mL
[7]
  MIC: 0.5 µg/mL
EC (RR -1)
  Mimimum Inhibitory Concentrations, EC (RR -1): ≤0.06 microgram/mL
EC (RR -2)
  Mimimum Inhibitory Concentrations, EC (RR -2): ≤0.06 microgram/mL
EC (URMC-1)
  MIC: 0.25 µg/mL
EC (URMC-2)
  MIC: ≤ 0.06 µg/mL
EC (URMC-3)
  MIC: 0.25 µg/mL
EC(ATCC NDM-1)
  MIC: > 64 µg/mL
EC(JMI OXA-48)
  MIC: 0.5 µg/mL
EC(KB1 CTX-M-15)
  MIC: 2 µg/mL
EC(KB2 CTX-M-15)
  MIC: 2 µg/mL
KP (ATCC KPC-3)
  Minimum Inhibitory Concentrations, KP (ATCC KPC-3): >64 microgram/mL
KP (GJ 5659 TEM-26)
  Minimum Inhibitory Concentrations, KP (GJ 5659 TEM-26): 0.5 microgram/mL
KP (RR -1)
  Mimimum Inhibitory Concentrations, KP (RR -1): 0.13 microgram/mL
KP (URMC-1)
  Minimum Inhibitory Concentrations, KP (URMC-1): 0.25 microgram/mL
KP (URMC-2)
  Minimum Inhibitory Concentrations, KP (URMC-2): 0.13 microgram/mL
KP (URMC-3)
  Minimum Inhibitory Concentrations, KP (URMC-3): ≤0.06 microgram/mL
KP(GJ 5934 TEM-26)
  Minimum Inhibitory Concentrations, KP(GJ 5934 TEM-26): 0.5 microgram/mL
KP(JMI KPC-2)
  Minimum Inhibitory Concentrations, KP(JMI KPC-2): 8 microgram/mL
KP(ATCC TEM-10/TEM-12)
  Minimum Inhibitory Concentrations, KP(ATCC TEM-10/TEM-12): 16 microgram/mL
ENA (URMC-1)
  MIC: 0.5 µg/mL
ENA (URMC-2)
  MIC: 0.5 µg/mL
CF (RR -1)
  Mimimum Inhibitory Concentrations, CF (RR -1): 1 microgram/mL
